For data set [1], the system named is HNEpC. Put plainly: HNEpC challenged with HDM: SPiDER β-galactosidase staining. In kind it is cell-based, human. The settings on record: 500 nM; HDM 30 μg/ml. How it is done:
ELVN-34 protects HNEpC from the senescence-associated secretory phenotype (SASP response). Representative images of HNEpC stained with Hoechst 33342 and spider β-galactosidase—(Panel A) untreated (Control), (Panel B) challenged with HDM (30 μg/ml), and (Panel C) HNEpC treated with HDM and ELVN-34:6 Na (500 nM). (Panel D) Quantitative assessment of increased SASP response (measured by the spider β-galactosidase staining) upon HDM exposure (30 μg/ml). ELVN-34:6 Na (500 nM) treatment reduces the number of beta-gal positive HNEpC induced by HDM. […] (*p<0.05).
Cryopreserved human nasal epithelial cells HNEpC were purchased from PromoCell GmbH, Heidelberg, Germany. (Catalog #C-1260, Lot #436Z028).
The cells used for our experiments are primary nasal epithelial cells obtained from the nasal mucosa of a person.
Cells were received in passage (P1) and were sub-culture to passage (P3), which were used for all the experiments.
HNEpC were grown to 80% confluency in Promocell's Airway epithelial cell growth medium (Catalog #C-21060) which was supplemented with airway epithelial cell growth medium supplement pack (Catalog #C-39160) and Penicillin/Streptomycin.

Data set [2] concerns pro-inflammatory transcriptome and pro-homeostatic pathways in RPE single-cells. Put plainly: UOS transcriptome in RPE single-cells. The class given is cell-based. The settings on record: 96 per sample. From the text: Dots in box plots represent expression of the gene for a single RPEC (total of 96 per sample). P<0.001 (***), P<0.01 (**), One-way Anova, with Post-Hoc Tukey HSD test for multiple comparisons.

Data set [3] deals with human RPE cells. Put plainly: Oxidative-stress and Erastin induced cell death in human RPE cells. The class given is cell-based.
Data set [4] relates to RPE and PRC. Put plainly: Subretinal injection of OAβ in WT mice: fundus/OCT and ZO-1 whole flat mount of RPE. The following applies: OAβ-injected retina, 10 μM subretinal, 7 days; non-injected retina 105 μm. The class given is in vivo, C57BL/6J WT mice. How it is done:
All animal experiments were performed according to ARVO Statement for the Use of Animals in Ophthalmic and Vision Research, and the protocol was approved by LSU Health New Orleans' Institutional Animal Care and Use Committee (IACUC). 6-month-old 5×FAD mice (stock number: 34848-JAX, The Jackson Laboratory, Bar Harbor, ME, USA), co-overexpress FAD mutant forms of human amyloid precursor protein (the Swedish mutation: K670N, M671L; the Florida mutation: I716V; and the London mutation: V7171) and presenilin 1 (PS1, encoded by Psen1: M146L, L286V) transgenes under transcriptional control of the neuron-specific mouse Thy1 promoter. 5×FAD mice were hemizygotes with respect to the transgenes and non-transgenic WT littermates. Genotyping was performed by PCR of tail DNA. All analyses were carried out blind with respect to the mice genotype. For the subretinal injection, 6-month-old C57BL/6J mice were anesthetized by an intraperitoneal injection of ketamine/xylazine, pupils dilated with 1.0% tropicamide (Akorn, IL, USA); and 0.5% Proparacaine Hydrochloride (Akorn) was applied for topical anesthesia. Eyes were punctured with a 30-gauge needle between the corneoscleral junction and the ora serrata into the vitreous cavity without disturbing the lens. Compounds were delivered to the subretinal region using a 33-gauge blunt needle attached to a 5 μl Hamilton syringe (Hamilton Company, Reno, NV, USA) under a dissecting microscope. Non-injected mice were used as negative control while the PBS injected mice were used for sham. The injection volume was 2 μl containing PBS, 10 μM of OAβ, 10 μM of OAβ+200 ng ELV-N-32, 200 ng ELV-N-32 alone, 10 μM of OAβ+200 ng ELV-N-34 or 200 ng ELV-N-34 alone (n=12/group). All groups received topical drops: PBS only or ELV-N-32 (200 nM) or ELV-N-34 (200 nM), twice a day for 3 or 7 days.
For the whole mount RPE staining, eyeballs were enucleated and pre-fixed in 4% PFA for 15 min. Then the eye cup containing RPE sheet were fixed in 4% PFA for 30 min, washed in PBS 3× following the blocking step for 1 h at room temperature. The immunostaining was performed by incubating primary antibody (ZO-1) for 48 h at 4° C. Then the eye cups were washed 3× with PBS and incubated with the secondary antibody for 12 h at 4° C. The primary human RPE cells as well as mouse eye cups were embedded in ProLong™ Gold Antifade Mounting medium (Thermo Fisher Scientific) between two glass coverslips. Pictures were taken with Olympus FV1200 microscope (Olympus, Japan). Images were analyzed by software ImageJ (rsb.info.nih.gov/ij/).
7 days post-injection, mice were anesthetized with ip ketamine/xylazine, pupil dilated by topical 1.0% tropicamide and placed in a custom-built holder for OCT imaging (body temperature maintained at 38° C. with a heat pad). Retinas were imaged along the horizontal meridian through the optic nerve head using a Heidelberg Spectralis HRA OCT system (Heidelberg Engineering, Heidelberg, Germany). Axial resolution is […]. The raw OCT B-scans cross-sectional images were exported with the scale in m and opened in ImageJ (http//imagej.nih.gov/ij). The PRC layer thickness was defined as the width from the tip of the outer nuclear layer, right after the outer plexiform layer, to the outer segments of PRC. Three measurements were made on the same scan and averaged. Mean and standard error of the mean (SEM) were calculated (n=4/group). Students' T-test was used to calculate statistical significance and a P-value less than 0.05 was considered significant.

The results in this text go back to patent US20240075004A1, “VERY-LONG-CHAIN POLYUNSATURATED FATTY ACIDS, ELOVANOID HYDROXYLATED DERIVATIVES, AND METHODS OF USE” (The Board of Supervisors of Louisiana State University and …, priority 2020, published 2024).

Turning to `CC/C=C\C[C@H](O)\C=C/C=C/C=C/[C@H](O)C/C=C\C/C=C\CCCCCCCCCCCCCCC(=O)[O-].[Na+]` [ELVN-34:6 Na, sodium (16Z,19Z,22R,23E,25E,27Z,29S,31Z)-22,29-dihydroxytetratriaconta-16,19,23,25,27,31-hexaenoate], the “number of beta-gal positive HNEpC (SASP response, spider β-galactosidase staining)” value in data set [1] is “reduces”. For the compound `CC/C=C\C[C@H](O)\C=C/C=C/C=C/[C@H](O)C/C=C\C/C=C\CCC(=O)O` [NPD1, 10R,17S-dihydroxy-docosa-4Z,7Z,11E,13E,15Z,19Z-hexaenoic acid, reference compound], the “UOS up-regulation of pro-inflammatory transcriptome and down-regulation of pro-homeostatic pathways” value in data set [2] is reported as “suppress these changes”. Besides, the “oxidative-stress and Erastin induced cell deaths” value in data set [3] is “counteracted”. On to “OAβ: Aβ (1-42) oligomerized for 24 h at 4° C.; cytotoxic challenge injected subretinally or added to cells [reference compound]”, for which the “PRC layer thickness (OCT)” value in data set [4] stood at 35 μm.
